Data set [1] is described as follows: Urinary excretion of MAG3 after subcutaneous or intravenous injection. To be noted: free compound.
Protocol: The effect of drug formulation on the rate of drug release in vivo was tested in the rat by external counting of radioactivity.
DOPC/DOPS (90:10, mol/mol) liposomes with or without the MscL-mutant G22C were used (protein-to-lipid ratio of 1:20, wt/wt).
Encapsulation of MAG3 in liposomes was performed by freezing/thawing three times followed by extrusion through a 400 nm filter. The free fraction of the compound was removed by G50 Sephadex column separation.
The normal liposomes were loaded with MAG3 in 0.9% NaCl and eluted on the G50 column with 25 mM HEPES pH 8, 150 mM NaCl.
Male Wistar rats were anaesthetized using iso-flurane O2/NO throughout the study. Liposome-encapsulated MAG3 in a 0.5 ml volume was injected subcutaneously (in the neck) and accumulation of radioactivity in the urinary bladder constantly monitored by external counting using a gamma-camera (window: 140 keV, 250 keV width, one minute time resolution). At the end of the study (after 40 minutes), a ten times higher dose of free MAG3 was administered subcutaneously or intravenously to measure the urinary excretion rates of those formulations.
A further data set concerns the target MscL (Escherichia coli, UniProt P0A742, G22C). Format: biochemical, E. coli. To be noted: G22C in DOPC:DOPS liposomes; 2.5 mM MTSEA, 10 mM MTSES. On the set-up: made in house; host or cells: E. coli PB104. The method, then:
Results Overexpression and Purification of the MscL Channel Protein
Samples were prepared and calcein efflux was monitored as described elsewhere in Example 1.
300 μl of detergent-treated liposomes were gently mixed with 240 μl of 0.25 mg/ml purified MscL-mutant G22C in elution buffer containing 0.2% Triton X-100. The mixture was incubated at 60° C. for 45 minutes, followed by the addition of an equal volume (540 μl) of calcein-loading buffer, containing 200 mM calcein, 25 mM Tris, 1 mM EDTA, pH 8.0. After addition of 20 mg of Triton X-100-absorbing Bio-Beads SM-2, the mixture was gently agitated for one hour at room temperature. Subsequently, 80 mg Bio-Beads were added and incubated at 4° C. overnight under mild agitation. Samples were prepared for calcein efflux assay as described elsewhere.

Data set [2] can be described thus: Gelation experiment (gel formation in solvents). The data set is classed as physicochemical. The procedure: To obtain a gel or to thicken the solvent, the compound is mixed with the required solvent or a mixture of solvents in an amount between 0.01 and 50 wt. %, based on the weight of the composition. Typically, the dissolution of the components will be performed by heating (in some cases it may be helpful to homogenize the components, e.g., vortex) them together at temperatures of 20° C. to 200° C., preferably 50° C. to 150° C. Cooling these hot solutions to a preferred temperature in the range of −20° C. to 100° C., preferably 4° C. to 100° C. affords the gel or thickened solvent. […] In an alternative embodiment, the gelling agent is first dissolved in a polar or apolar solvent followed by the addition of another solvent or solvent mixture, thereby causing gelation to take place.
It will be understood that the use of the present gelling agents or thickeners to prepare a gel or to thicken a composition is also encompassed by the invention. As is well-known, gelling behavior of compounds or compositions is highly unpredictable. […] Preferably, the gelling phenomenon is thermoreversible.
(§1) In a typical gelation experiment, a carefully weighed amount of the dithienylcyclopentene derivative under investigation and 1 ml of the solvent are placed in a test tube, which is sealed and then heated until the compound is dissolved. The solution is allowed to cool to room temperature. […] The gelation process could be followed by UV-vis and CD spectroscopy as depicted in FIG. 58. At low concentrations (0.35 mM), compound D is dissolved in toluene. […] Increasing the concentration to 1.8 mM causes gelation of the solvent, which is accompanied by a change of the UV-visible spectrum, together with the appearance of a strong CD signal at 323 nm (FIG. 58, panels (a) and (c)). Similar changes in the UV-vis and CD spectrum are observed upon gelation of the 1.8 mM solution of D in toluene by cooling to a temperature below the sol-gel phase transition (from here on, referred to as gel(o)). From a plot of the increase of the CD signal versus the temperature, the sol-gel phase transition temperature of gel(o) was determined to be 29° C. for a 1.8 mM solution of D in toluene.

Data set [3] is described as follows: Sol-gel phase transition temperature and photo-switching by CD spectroscopy. Format: physicochemical. The method, then: as §1
In a typical photo-switching experiment, a solution (1.8 mM) of Compound D in toluene was prepared by cooling from 70° C. to the desired temperature (typically between 30° C. and 60° C., i.e., above the gel-sol phase transition temperature of the open form of D) in a cuvette of 1 mm path length. This solution was then irradiated at λ1=313 nm to convert the ring-open form of Compound D to the ring-closed form. By using a 150 W Xe lamp and a 313 nm bandpass filter, the photo-stationary state (PSS) was reached, typically within 10 minutes, which consist of 60 mol % of the closed form and 40 mol % of the open form.

Data set [4] is described as follows: Subcutaneous pH reduction by MES buffer. Format: in vivo, rat. To be noted: pH 6.1, 0.5 ml s.c. The procedure:
Male Wistar rats remained conscious throughout the study. The subcutaneous pH was constantly recorded using a micro-glass electrode. After stabilization of the pH, 0.5 ml MES buffer (pH 6.1) was injected approximately 3 mm from the pH electrode. The effect of different molarities (50, 100 and 250 mM) of the MES buffer on the time-course of pH reduction was tested.

Data set [5] can be described thus: pH as stimulus for gel-to-sol and sol-to-gel transitions. The data set is classed as physicochemical. The source says: Addition of base to a gel of 1 led to a decrease in melting temperature of the gel. Above pH>4.06, gelation was no longer observed (reversible process; see FIG. 50).
Compound 15 can gelate water and undergoes a sol-to-gel transition around pH=4.93 at room temperature (for a 0.5 wt % gel).

The nature of data set [6]: Gelation in the presence of surfactants and polymeric micelles. Format: physicochemical. On the set-up: key: G = gel; C = crystalline; G^a: ^a= not stable.
Assay in data set [7]: as above
The data set is classed as physicochemical. On the set-up: key: g = gel; i = insoluble; p = precipitate; sol = soluble.

Data set [8] can be described thus: Release of quinolines from DBC gels by UV-Vis spectroscopy. Format: physicochemical. The conditions noted are these: into 1 mL PBS pH 7.4, initial 0.001M. An excerpt: Entrapment of 8-aminoquinoline and 2-hydroxyquinoline (FIG. 61) was achieved by adding a PBS (phosphate-buffered saline) pH 7.4 solution of the quinoline of interest to X mg of DBC (dibenzoyl cystine); X=2, 3.5, 5 or 10, depending on the weight percentage (wt %) of gelator desired. The sample was then heated in a closed vial until complete dissolution of DBC was observed and subsequently allowed to cool to room temperature where gelation of the sample and, thus, entrapment of the quinolines in the gel occured.
After 24 hours, percentages of 8-aminoquinoline and 2-hydroxyquinoline released from DBC gels of different weight percentages into 1mL of PBS solution at pH 7.4 in contact with the gel, were measured by UV-Vis spectroscopy and are reported in Table J. The initial quinoline concentration in the gel was 0.001M. The error on each percentage is ±4%.

Sequence of MscL (P0A742 whole entry G22C): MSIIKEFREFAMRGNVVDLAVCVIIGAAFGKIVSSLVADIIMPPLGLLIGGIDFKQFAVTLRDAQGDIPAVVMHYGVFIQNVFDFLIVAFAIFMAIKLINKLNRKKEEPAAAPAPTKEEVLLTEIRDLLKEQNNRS

In the case of mertiatide [MAG3], the entries for the “time to 50% urinary excretion” value in data set [1] (intravenous) and in [1] (subcutaneous) were 3 min and > 12 min, respectively.
With “2-aminoethyl methanethiosulfonate [MTSEA, reference compound]”, the “calcein release upon addition of MTS compound, versus MTSET” value at MscL is recorded as “the kinetics of release are significantly slower”.
`Cc1sc(C(=O)N[C@H](C)c2ccccc2)cc1C1=C(c2cc(C(=O)N[C@H](C)c3ccccc3)sc2C)CCC1` [Compound D, 1,2-Bis(2′-methyl-5′-{(((R)-1-phenylethyl)amino)carbonyl}thien-3′-yl)cyclopentene]: the solvents gelated entry in data set [2] was “cyclohexane, 1-phenyloctane, toluene, n-butylether, benzene, tetralin”. For the same molecule, in [3] (1.8 mM in toluene, after irradiation at 313 nm (PSS)), the “sol-gel phase transition temperature of gel(c,I)” value came out at 62 °C. Besides, in [3] (1.8 mM in toluene, open form), the “sol-gel phase transition temperature of gel(o)” value worked out at 29 °C. Further, the “increase of thermal stability compared to gel(o)” value in data set [3] (gel(c,I)) was “more than 30 °C”.
Regarding `O=S(=O)(O)CCN1CCOCC1` [MES], the “time for subcutaneous pH to return to pH 7.4” value in data set [4] (50 mM) and in data set [4] (100 mM) was “ten” throughout. In data set [4] (250 mM), the “time pH remained below pH 6.5” value is on record as “more than 30 minutes”.
`CSCC[C@H](NC(=O)[C@H]1C[C@@H](C(=O)N[C@@H](CCSC)C(=O)O)C[C@@H](C(=O)N[C@@H](CCSC)C(=O)O)C1)C(=O)O` [gelator 1, CHexAmMetOH]: the solvents gelated entry in data set [2] was “water and lower alcohols”. Also, the “pH above which gelation was no longer observed” value in data set [5] (addition of base, reversible) amounted to 4.06. Moreover, the Gelation properties entry in [6] (CTAB < CMC, * pH reversible gelation) was “C”; in data set [6] (CTAB < CMC, ** pH reversible then thermoreversible gelation) it was “C”; in [6] (CTAB > CMC, * pH reversible gelation), “C”; in [6] (CTAB > CMC, ** pH reversible then thermoreversible gelation), “C”; in [6] (Lactose der. < CMC, * pH reversible gelation), “G”; in data set [6] (Lactose der. < CMC, ** pH reversible then thermoreversible gelation), “G”. In addition, the Gelation properties entry in [6] (Lactose der. > CMC, * pH reversible gelation) was “G”; in data set [6] (Lactose der. > CMC, ** pH reversible then thermoreversible gelation) it was “G”; in data set [6] (Nonionic (Lactose der.) < CMC), “G”; in data set [6] (Nonionic (Lactose der.) > CMC), “G”; in data set [6] (SDS < CMC, * pH reversible gelation), “G”; in data set [6] (SDS < CMC, ** pH reversible then thermoreversible gelation) it was “G”. Besides, the Gelation properties result is given as “G” in [6] (SDS > CMC, * pH reversible gelation); “G” in [6] (SDS > CMC, ** pH reversible then thermoreversible gelation); “G” in [6] (anionic (SDS) < CMC); “G” in data set [6] (anionic (SDS) > CMC); “C” in data set [6] (cationic (CTAB) < CMC); “C” in data set [6] (cationic (CTAB) > CMC). Further, the Gelation properties result in data set [7] (Pluronic P 105, 5 mg · ml^−1) is recorded as “p”; in data set [7] (Pluronic P 105, 5 mg · ml^−1, * pH reversible gelation), “g”; in data set [7] (Pluronic P 105, 5 mg · ml^−1, ** pH reversible then thermoreversible gelation), “p”; in [7] (Pluronic P 105, 100 mg · ml^−1) it was “p”; in data set [7] (Pluronic P 105, 100 mg · ml^−1, * pH reversible gelation) it was “g”; in [7] (Pluronic P 105, 100 mg · ml^−1, ** pH reversible then thermoreversible gelation) it was “p”.
As for `Oc1ccc2ccccc2n1` [2-hydroxyquinoline], the “percentage released from DBC gel after 24 hours” value in data set [8] (DBC 0.35 wt %) is on record as 38%; in data set [8] (DBC 0.5 wt %), 37%; in data set [8] (DBC 1.0 wt %), 36%.
Taken in the same sequence, the figures for `Nc1cccc2cccnc12` [8-aminoquinoline] were 15%, 12% and 10%.
For the molecule CHexAmMetAmCH2Pyr [gelator 6], the solvents gelated result in data set [2] is given as “water:alcohol mixtures (1:1)”. The state entry in data set [2] (DMSO) is given as “soluble”; in [2] (EtOH), “soluble”; in data set [2] (H2O/EtOH (1:1), weight % 1.0, 0.5, 0.25), “gel”; in [2] (H2O/EtOH (2:1), weight % 0.16), “gel”; in data set [2] (H2O/EtOH (4:1), weight % 1.0, 0.5), “gel (turbid)”; in data set [2] (H2O/MeOH (1:1), weight % 0.5, 0.25), “gel”. The state entry is on record as “gel (turbid)” in data set [2] (H2O/MeOH (4:1), weight % 1.0, 0.5); “insoluble” in data set [2] (H2O, weight % 0.05); “soluble” in data set [2] (MeOH). Also, the “pH of sol-to-gel transition” value in data set [5] (room temperature, 0.5 wt % in MeOH:H2O=1:1) is listed as ~4.47.
Take “sodium (2-sulfonatoethyl)methane thiosulfonate [MTSES, reference compound]”: at MscL, the “calcein release upon addition of MTS compound, versus MTSET” value is reported as “the kinetics of release are significantly slower”.
In the case of `COC(=O)[C@H](CCSC)NC(=O)[C@H]1C[C@@H](C(=O)N[C@@H](CCSC)C(=O)OC)C[C@@H](C(=O)N[C@@H](CCSC)C(=O)OC)C1` [9a, CHexAmMetOMe], the solvents gelated result in data set [2] is “both organic solvents and water”. The “effect of sufficient amounts of base on the gel” value in data set [5] was “causes dissolution of these gels”.

These data come from patent US20050272677A1, “Delivery of a substance to a pre-determined site” (priority 2002, published 2005).
